In paper PMC11237035, “Glutathione determines chronic myeloid leukemia vulnerability to an inhibitor of CMPK and TMPK” (Communications Biology, 2024):
pIC50: −log10 of the molar value. Values joined by “and” are separate entries in the source; they are usually repeats but may differ in a detail not shown here. Identical values can stand only once. Like-named read-outs stand apart in the source and are kept apart here.

Legend:
T315I-Bcr-Abl-32D cells [1] = assay: CCK-8 cell viability assay, T315I-Bcr-Abl-32D cells; type: cell-based, mouse; conditions: for viability (0 = 100): T315I-Bcr-Abl, single replicates
K562 cells = assay: CCK-8 cell viability assay, K562 cells; type: cell-based, human; conditions: for cell viability (Figure 7d): K562, relative to 0 = 100, per replicate
Protocol: After 3 days, cells were analyzed by viability assays.

untransformed 32D cells = assay: Western blot of tyrosine phosphorylation, untransformed 32D cells; type: cell-based, mouse; conditions: untransformed 32D cells, JMF4073 at indicated concentrations, Western blot
WT-Bcr-Abl-32D cells = assay: Western blot of tyrosine phosphorylation and Bcr-Abl downstream signaling, WT-Bcr-Abl-32D cells; type: cell-based, mouse; conditions: WT-Bcr-Abl-32D cells, JMF4073 at indicated concentrations, Western blot
Excerpt: (§1) Supplementary Figure 1. Bcr-Abl-activated downstream signaling in WT- and
(§2) The comparison of Bcr-Abl downstream signaling (Akt, mTorC1, and Stat5) in WT- […]

T315I-Bcr-Abl-32D cells [2] = assay: Western blot of tyrosine phosphorylation and Bcr-Abl downstream signaling, T315I-Bcr-Abl-32D cells; type: cell-based, mouse; conditions: T315I-Bcr-Abl-32D cells, JMF4073 at indicated concentrations, Western blot
Excerpt: as §1, §2

hTMPK = target: T1, hTMPK (Homo sapiens, UniProt P23919); assay: biochemical
T1 sequence (P23919 1-212): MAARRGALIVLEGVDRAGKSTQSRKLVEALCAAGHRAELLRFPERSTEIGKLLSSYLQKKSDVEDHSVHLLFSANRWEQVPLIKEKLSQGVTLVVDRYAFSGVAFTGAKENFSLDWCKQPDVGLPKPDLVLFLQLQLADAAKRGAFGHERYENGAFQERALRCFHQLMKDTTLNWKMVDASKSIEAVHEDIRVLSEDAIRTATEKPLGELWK
Protocol: Activity assay was measured using the spectrophotometric method by coupling ADP formation to NADH oxidation catalyzed by pyruvate kinase and lactate dehydrogenase as described previously[20]. Each reaction contained 0.4 μg TMPK or 0.3 μg CMPK was incubated at 25 °C followed by using Tecan Spark 10 microplate reader to detect the change in NADH measurement at 340 nm absorption according to the manufacturer’s instructions.

TCCS cells = assay: CCK-8 cell viability assay, TCCS cells; conditions: for cell viability (Figure 7d) / cell viability (Figure 7g): TCCS, per replicate; for cell viability (Figure 7d): relative to 0 = 100; for cell viability (Figure 7g): NT, NT 0 μM = 100
Protocol: (§3) Cells were seeded at the density of 1 × 10^3 cells/well in 96-well microplate. After 3 days, cell viability was determined using the CCK-8 cell viability. The viability was measured by using Tecan Spark 10 microplate reader at 450 nm according to the manufacturer’s instructions.

KOPM28 cells = assay: CCK-8 cell viability assay, KOPM28 cells; conditions: for cell viability (Figure 7g): NT, NT 0 μM = 100, per replicate
Protocol: as §3

[3] = test system: WT-Bcr-Abl-32D cells in C3H/HeNCrNarl mice; assay: In vivo therapy of WT-Bcr-Abl-32D CML mice; conditions: WT-Bcr-Abl-32D mice
Excerpt: Data are represented as means ± S.D., n = 3 biological replicates. e C3H/HeNCrNarl mice were intravenously injected with 5 × 10^5 cells of WT-Bcr-Abl-32D cell. […] Asterisks denote *p < 0.05, **p < 0.01, ***p < 0.001, or ****p < 0.0001 from unpaired two-tailed Student’s t-test or Log-rank (Mantel–Cox) test.
Female C3H/HeNCrNarl mice were used at 6–8 weeks of age (National Laboratory Animal Center, Taiwan).
Mouse CML induction and in vivo therapy
Female C3H/HeNCrNarl mice were used at 6-8 weeks of age (National
Laboratory Animal Center, Taiwan). WT-Bcr-Abl-32D-EGFP+ cells (5 × 105)
suspended in 200 μL of HBSS were injected into each mouse through the tail vein. After
were monitored for peripheral blood (PB) and counted by Taiwan Mouse Clinic-
National Phenotyping Center, National Research Program for Genomic Medicine
(NSC). For T315I-Bcr-Abl CML mice, T315I-Bcr-Abl-32D-EGFP+ cells (1×106)
suspended in 200 μL of HBSS were tail-vein-injected. After 7 days of transplantation,
(§4) For monitoring CML progress, mice blood was
(§5) collected in anticoagulation tubes by submandibular blood collection, followed by
(§6) lysing red blood cells with RBC lysis buffer (Invitrogen). After washing, the remaining
(§7) cells were suspended in 500 μL of HBSS and subjected to flow cytometry analysis
(FACScalibur, BD Bioscience) with CellQuest software. The number of EGFP+ cells

[4] = test system: T315I-Bcr-Abl-32D cells in C3H/HeNCrNarl mice; conditions: for survival of leukemia mice: T315I-Bcr-Abl-32D mice, vs vehicle
Protocol: Asterisks denote *p < 0.05, **p < 0.01, ***p < 0.001, or ****p < 0.0001 from unpaired two-tailed Student’s t-test or Log-rank (Mantel–Cox) test.
T315I-Bcr-Abl-transformed and untransformed 32D cells were treated with UK-5099 (25 μM) for 16 h. […] Data are represented as means ± S.D., n > 3 biological replicates.
The animal studies were approved by the biosafety committee at National Taiwan University and conformed to the national guidelines and regulations (IACUC # 20201063). Female C3H/HeNCrNarl mice were used at 6–8 weeks of age (National Laboratory Animal Center, Taiwan).
Mouse CML induction and in vivo therapy
The animal studies were approved by the biosafety committee at National Taiwan
University and conformed to the national guidelines and regulations (IACUC #
20201063). Female C3H/HeNCrNarl mice were used at 6-8 weeks of age (National
Laboratory Animal Center, Taiwan).
suspended in 200 μL of HBSS were injected into each mouse through the tail vein.
suspended in 200 μL of HBSS were tail-vein-injected.
as §4, §5, §6, §7
(FACScalibur, BD Bioscience) with CellQuest software.

## CC(C)(C)OC(=O)N1CCN(C(=O)Cn2sc3ccc(F)cc3c2=O)CC1 [JMF4073, Tert-butyl 4-(2-(5-fluoro-3-oxobenzo[d]isothiazol-2(3H)-yl)acetyl) piperazine-1-carboxylate]
T315I-Bcr-Abl-32D cells [1]; JMF4073 2 mM (so in the source)
  viability (0 = 100): 12 and 38 and 34.0126
T315I-Bcr-Abl-32D cells [1]; JMF4073 5 mM (so in the source)
  viability (0 = 100): 19 and 10 and 9.067
T315I-Bcr-Abl-32D cells [1]; T315I-Bcr-Abl-32D cells, BSO 12.5 μM
  JMF4073 sensitivity with BSO co-treatment: markedly increased
T315I-Bcr-Abl-32D cells [1]; T315I-Bcr-Abl-32D cells, UK-5099 25 μM
  JMF4073 sensitivity with UK-5099 treatment: sensitized
K562 cells; JMF4073 0.625 (mM as printed)
  cell viability (Figure 7d): 114.189 and 84.0418 and 97.6144
K562 cells; JMF4073 1.25 (mM as printed)
  cell viability (Figure 7d): 86.4343 and 75.2342 and 85.0231
K562 cells; JMF4073 2.5 (mM as printed)
  cell viability (Figure 7d): 42.6408 and 39.7616 and 38.8404
K562 cells; JMF4073 5 (mM as printed)
  cell viability (Figure 7d): 4.788 and 0.7438 and 0.1275
K562 cells; K562 cells, 3 days, compared among K562, TCCS, KOPM28
  JMF4073 sensitivity: higher
Untransformed 32D cells
  levels of overall tyrosine phosphorylation: unaffected
WT-Bcr-Abl-32D cells
  levels of overall tyrosine phosphorylation: unaffected
T315I-Bcr-Abl-32D cells [2]
  levels of overall tyrosine phosphorylation: unaffected
hTMPK
  pIC50: 6.80 and ~6.77
TCCS cells; TCCS cells
  sensitivity to combinatory treatment of JMF4073 and UK-5099: insensitive
TCCS cells; TCCS cells, 3 days, compared among K562, TCCS, KOPM28
  JMF4073 sensitivity: less
TCCS cells; TCCS cells, erastin 0.5 μM, 16 h
  JMF4073 sensitivity after erastin pretreatment: markedly increased
TCCS cells; JMF4073 0.625
  cell viability (Figure 7d): 120.422 and 103.29 and 164.136
TCCS cells; JMF4073 1.25
  cell viability (Figure 7d): 102.037 and 133.359
TCCS cells; JMF4073 2.5
  cell viability (Figure 7d): 39.3238 and 117.065
TCCS cells; JMF4073 5
  cell viability (Figure 7d): 61.7646 and -1.852 and 14.6452
TCCS cells; JMF 4073 0.625 μM
  cell viability (Figure 7g): 120.422 and 103.29 and 164.136
TCCS cells; JMF 4073 1.25 μM
  cell viability (Figure 7g): 102.037 and 133.359
TCCS cells; JMF 4073 2.5 μM
  cell viability (Figure 7g): 39.3238 and 117.065
TCCS cells; JMF 4073 5 μM
  cell viability (Figure 7g): 61.7646 and -1.852 and 14.6452
KOPM28 cells; KOPM28, JMF 4073 1.25 μM
  cell viability (Figure 7g): 106.704 and 151.464
KOPM28 cells; KOPM28, JMF 4073 2.5 μM
  cell viability (Figure 7g): 112.966 and 158.237
KOPM28 cells; KOPM28, JMF 4073 5 μM
  cell viability (Figure 7g): 142.547 and 122.577 and 85.9406
KOPM28 cells; KOPM28, JMF 4073 10 μM
  cell viability (Figure 7g): 0 and -1.445 and 2.083
KOPM28 cells; KOPM28 cells
  sensitivity to combinatory treatment of JMF4073 and UK-5099: insensitive
KOPM28 cells; KOPM28 cells, 3 days, compared among K562, TCCS, KOPM28
  JMF4073 sensitivity: insensitive
KOPM28 cells; KOPM28 cells, erastin 0.5 μM, 16 h
  JMF4073 sensitivity after erastin pretreatment: markedly increased
[3]; IP JMF4073, Day 26, submandibular blood, single mice
  WBC (White blood cell/Leukocyte count): brought down
[3]; JMF4073 5 mg/kg i.p. daily for 14 days, vs vehicle
  survival of leukemia mice: prolonged the survival
[4]; Figure 6h, individual mice N1-N3
  Spleen weight: 0.26 g and 0.29 g and 0.58 g
[4]; JMF4073 5 mg/kg + UK-5099 10 mg/kg i.p.
  spleen size: marked decreases
[4]; JMF4073 5 mg/kg + UK-5099 10 mg/kg i.p., flow cytometry, day 30 after transplantation
  population of T315I-Bcr-Abl-32D/EGFP+ cells in blood: marked decreases
[4]; JMF4073 5 mg/kg + UK-5099 10 mg/kg i.p. daily for 14 days
  survival of leukemia mice: prolonged the survival
[4]; JMF4073 5 mg/kg i.p. daily for 14 days
  survival of leukemia mice: not significantly prolonged
